Laboratory results as given in paper PMC11656837, “pH-Responsive Peptide Nanoparticles Deliver Macromolecules to Cells via Endosomal Membrane Nanoporation” (ACS Nano, 2024).

Tests used:
[1] = Protocol: This was done by incubating 50 μM peptide under each experimental condition for 60 min, followed by centrifugation at 1400g to remove large aggregates, and by subsequent centrifugation at 11,000g to remove intermediate aggregates. Peptide concentration in solution before and after centrifugation was determined by reverse phase HPLC.
Dried peptides were reconstituted in 50 μL of PBS at pH 7 or at pH 5. The solutions were bath-sonicated briefly and incubated at room temperature for 30 min. Three aliquots of each sample were removed for analysis: one before centrifugation, one after centrifugation for 5 min at 1400g, and one after centrifugation for 10 min at 11,000g. These aliquots were diluted and analyzed by reverse phase HPLC. The integrated peak area of the tryptophan fluorescence peak was determined for each sample.

[2] = Tryptophan fluorescence emission (water exposure of Trp19); format: physicochemical; conditions: buffer pH 7, no vesicles, 25 μM peptide in PBS
Text: Here, in Figure 8, we examine the solution behavior of C16-D-pHD108 using tryptophan fluorescence to measure the water exposure of the tryptophan residue at position 19, Figure 1, and using circular dichroism spectroscopy to measure the secondary structure.
In Figure 8B, we show tryptophan emission spectra for the same three samples.

[3] = tested on: HeLa cells; conditions: 40 nM PE-III
Text: For this, we use PE-III, the third domain of the Pseudomonas exotoxin. This 25 kDa enzyme ADP ribosylates ribosomal elongation factor 2, thereby blocking protein synthesis and triggering apoptosis. […] Thus, apoptosis will occur only if an exogenous agent, such as a peptide, enables cytosolic delivery of the 4 × 3 nm PE-III protein, Figure 2A.
Comparison of peptide concentration midpoints requires a constant concentration of PE-III in each experiment. […] The major disadvantage of the PE-III assay to detect delivery is that only a few molecules of active PE-III delivered to the cytosol[36] will produce a positive result. To partly mitigate this effect in the assays described below, we use a constant 40 nM PE-III. At such a low concentration, each endosome will contain an average of fewer than one PE-III molecule if we assume passive entrapment of the cargo (see the Supporting Information).
The no treatment (no tx) control group contained cells but no peptide or PE-III enzyme. The Alamar Blue intensity of this group was defined as 100% viability. Media alone without cells was defined as 0% viability.
The concentration range used for each peptide was adjusted according to preliminary measurements of activity in this assay. We assessed PE-III delivery by measuring cell viability using Alamar Blue.
Fifteen thousand HeLa cells were seeded in a clear bottom, black-walled 96-well plate overnight at 37 °C with 5% CO2 in complete media (DMEM + phenol red +10% FBS + antimycotic/antibiotic + nonessential amino acids). Cells were then washed once in PBS and treated with PE-III and peptide in serum-free media without phenol red, with a 50 μL total volume. After a 2-day incubation with treatment, 50 μL of 10% Alamar blue reagent diluted in serum-free media was added directly to each well (5% Alamar blue final) and incubated for 1.5 h at 37 °C. The plate was then read at 550 equiv/590 em on a Biotek plate reader. Untreated cells were used as a negative control, and MelP5-treated cells served as a positive control.

[4] = tested on: HeLa cells; experiment: Cytosolic delivery of green fluorescent protein (confocal microscopy); format: cell-based, human; conditions: 25 μM peptide, 10 μM external GFP, overnight, 37 °C
Protocol: To validate the dextran delivery experiments, we also delivered two separate fluorescent proteins of ∼27 kDa molecular weight to the cytosol of two different cell lines using C16-D-pHD108 (see Figure 7). HeLa cells were incubated overnight with 10 μM green fluorescent protein (GFP), and Chinese Hamster Ovary (CHO) cells were incubated overnight with 3.5 μM yellow fluorescent protein (YFP), with and without 25 μM C16-D-pHD108. Just before imaging, external GFP and YFP were washed off and replaced with TAMRA-dextran (red) or fluorescent protein mTurquoise (blue), respectively, to mark the cell boundaries and extracellular spaces. […] These cells, especially those incubated with the higher 10 μM concentration of GFP, show endosomes with entrapped FP, just as we observed for dextran delivery. […] The apparent nuclear concentration of GFP in cells incubated with GFP but no peptide is indistinguishable from the background. […]
For fluorescent protein or fluorescein-(Fab)2 fragment delivery, HeLa cells were incubated at 37 °C overnight in the presence of GFP with and without C16-D-pHD108 and CHO cells were incubated at 37 °C overnight with YFP in the presence and absence of C16-D-pHD108. […] Quantitation of delivered protein was performed by comparing measured intensities from microscopy images of standard protein solutions of known concentrations.

For `CCCCCCCCCCCCCCCC(=O)NCC(=O)N[C@@H](C(=O)NCC(=O)N[C@H](CCC(=O)O)C(=O)N[C@@H](C(=O)N[C@H](CC(C)C)C(=O)N[C@H](Cc1c[nH]cn1)C(=O)N[C@H](CCC(=O)O)C(=O)N[C@H](CC(C)C)C(=O)N[C@H](C)C(=O)N[C@H](CCC(=O)O)C(=O)NCC(=O)N[C@H](CC(C)C)C(=O)N1CCC[C@@H]1C(=O)N[C@H](CCC(=O)O)C(=O)N[C@H](CC(C)C)C(=O)N[C@H](CCC(N)=O)C(=O)N[C@H](CCC(=O)O)C(=O)N[C@H](Cc1c[nH]c2ccccc12)C(=O)N[C@@H](C(=O)N[C@H](Cc1c[nH]cn1)C(=O)N[C@H](C)C(=O)N[C@H](C)C(=O)N[C@H](CCC(N)=O)C(=O)N[C@H](CCC(N)=O)C(=O)N[C@H](CC(C)C)C(N)=O)[C@H](C)CC)C(C)C)[C@H](C)CC` [C16-D-pHD108], the “solubility after dissolving at pH 7 and decreasing to pH 5” value ([1]; 50 μM, pH 7 then pH 5, centrifugation, reverse phase HPLC) was “became insoluble”, the “solubility at pH 5” value ([1]; from dried peptide, 50 μM in PBS pH 5, centrifugation 1400g then 11,000g, reverse phase HPLC) was “almost none of the peptides went into solution” and the “solubility and stability to centrifugation at pH 7” value ([1]; from dried peptide, 50 μM in PBS pH 7, bath sonication, 60 min, room temperature, centrifugation 1400g then 11,000g, reverse phase HPLC (Trp fluorescence peak area)) was “remains soluble at pH 7 and is not removed by centrifugation”. The “solubility in buffer / PBS at pH 7” value ([1]; pH 7, buffer or PBS) was “soluble in PBS and remained in solution at pH 7 for days”, the “tryptophan fluorescence emission maximum” value [2] was 330 nm and the “cells that undergo apoptosis” value ([3]; 10 μM peptide) was > 98%. The “fold increase in activity over unmodified pHD108” value ([3]; from EC50 in HeLa) was 74 fold, the EC50 ([3]; read-out: EC50 (peptide concentration midpoint for PE-III-dependent apoptosis), HeLa, serum-free media, 48 h, 37 °C, Alamar Blue) was 1900 nM and the “GFP concentration delivered to cell cytosol, median” value [4] was “about 2 μM”. The “GFP delivered to cytosol, median as percent of the external concentration” value [4] was ~20%.
